Among the data in patent publication US10562891B2, “Quinazolinones as PARP14 inhibitors” (Ribon Therapeutics Inc., priority 2017, dated 2020) are IC50 values, retold here.

What is called pIC50 is −log10 of the IC50, conventionally taken in molar units. The low end stands for a large IC50, the high end for a small IC50.

SMILES strings stand for the structures. pIC50: −log10 of the molar value. Where a name gives a salt, the structure may show the parent alone. Some results are limits rather than exact numbers.

In the test the target is catalytic domain of human PARP14 (Homo sapiens (Human), UniProt Q460N5). Briefly: Enzymatic assay for inhibition of PARP14 (DELFIA, auto-modification with biotin-NAD). In kind it is biochemical. Conditions: auto-modification of PARP14 by biotin-NAD, 50 nM PARP14, 3 μM biotin-NAD. The essentials:
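His-TEV-tagged PARP14 catalytic domain (50 nM) preincubated with compound 30 min at 25 °C, then auto-modified with 3 μM biotin-NAD for 3 h at 25 °C in HEPES pH 8 buffer with DTT. IC50 from 4-parameter fit, rucaparib and DMSO as controls.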

Chain of catalytic domain of human PARP14 (Q460N5 1611-1801): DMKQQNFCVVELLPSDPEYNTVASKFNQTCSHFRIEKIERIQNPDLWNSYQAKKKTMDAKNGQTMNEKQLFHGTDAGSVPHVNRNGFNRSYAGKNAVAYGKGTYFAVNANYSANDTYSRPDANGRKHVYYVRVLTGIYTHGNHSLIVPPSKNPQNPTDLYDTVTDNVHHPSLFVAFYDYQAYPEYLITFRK

For the compound `Cc1ccc(F)c2c(=O)[nH]c(CS[C@H]3CC[C@@H](O)CC3)nc12` [Example 58, 5-Fluoro-2-(((cis-4-hydroxycyclohexyl)thio)methyl)-8-methylquinazolin-4(3H)-one], the pIC50 was greater than 6.00.

`CC1(C)CC(SCc2nc3cc(OCC4CCC4)cc(F)c3c(=O)[nH]2)CCO1` (centres unmarked) [Example 308, 7-(Cyclobutylmethoxy)-2-(((2,2-dimethyltetrahydro-2H-pyran-4-yl)thio)methyl)-5-fluoroquinazolin-4(3H)-one] showed a pIC50 greater than 6.00.

`O=c1[nH]c(CS[C@H]2CCNC[C@H]2F)nc2cc(NC3CCCC3)cc(F)c12` (relative stereo) [Example 212, 7-(Cyclopentylamino)-5-fluoro-2-((((cis)-3-fluoropiperidin-4-yl)thio)methyl)quinazolin-4(3H)-one Hydrochloride] had a pIC50 greater than 6.00.

The compound `O=c1[nH]c(CSC2CCOCC2)nc2cc(NC3CCCC3)cc(CF)c12` [Example 225, 7-(cyclopentylamino)-5-(fluoromethyl)-2-(((tetrahydro-2H-pyran-4-yl)thio)methyl)quinazolin-4(3H)-one] gave a pIC50 of less than 5.00.

`Cc1cccc2c(=O)[nH]c(CSC3CCN(C(=O)CCc4ccccn4)CC3)nc12` [Example 173, 8-Methyl-2-(((1-(3-(pyridin-2-yl)propanoyl)piperidin-4-yl)thio)methyl) quinazolin-4(3H)-one] gave a pIC50 of 5.00 to 6.00.

In the case of `Cc1cccc2c(=O)[nH]c(CSC3CCN(Cc4cncn4Cc4ccccc4)CC3)nc12` [Example 153, 2-(((1-((1-Benzyl-1H-imidazol-5-yl)methyl)piperidin-4-yl)thio)methyl)-8-methylquinazolin-4(3H)-one trifluoroacetate], the pIC50 is greater than 6.00.

`COc1cccc(Nc2ccc3c(=O)[nH]c(CSC4CCOCC4)nc3c2)c1` [Example 83, 7-((3-Methoxyphenyl)amino)-2-(((tetrahydro-2H-pyran-4-yl)thio)methyl)quinazolin-4(3H)-one] had a pIC50 of 5.00 to 6.00.

As for `CC(=O)N1CCCC(COc2cc(F)c3c(=O)[nH]c(CSC4CCOCC4)nc3c2)C1` (centres unmarked) [Example 401], the pIC50 is greater than 6.00.

`O=c1[nH]c(CS[C@H]2CC[C@H](O)CC2)nc2cc(NC3CCN(CCC(F)(F)F)CC3)c(F)c(F)c12` [Example 354] had a pIC50 greater than 6.00.

Regarding `CC(=O)N[C@H]1CC[C@H](SCc2nc3cc(OCC4CCOC4)cc(F)c3c(=O)[nH]2)CC1` (some centres unmarked) [Example 391], the pIC50 was greater than 6.00.

`Cc1cccc2c(=O)[nH]c(CSC3CCN(C(=O)[C@@H](N)CCCCN)CC3)nc12` [Example 171, 2-(((1-(L-Lysyl)piperidin-4-yl)thio)methyl)-8-methylquinazolin-4(3H)-one Dihydrochloride] had a pIC50 greater than 6.00.

In turn, `O=C(N[C@H]1CC[C@H](SCc2nc3cc(OCC4CC4)cc(F)c3c(=O)[nH]2)CC1)C1CC1` [Example 395] gave a pIC50 greater than 6.00.

With `CO[C@H]1C[C@@H](Nc2cc3nc(CSC4CCOCC4)[nH]c(=O)c3c(F)c2F)C1` [Example 328, 5,6-Difluoro-7-(((cis)-3-methoxycyclobutyl)amino)-2-(((tetrahydro-2H-pyran-4-yl)thio)methyl)quinazolin-4(3H)-one], the pIC50 is greater than 6.00.

In turn, `O=c1[nH]c(CSC2CCCCC2)nc2cc(NC3CCCC3)cc(F)c12` [Example 215, 2-((Cyclohexylthio)methyl)-7-(cyclopentylamino)-5-fluoroquinazolin-4(3H)-one] showed a pIC50 greater than 6.00.

In turn, `O=c1[nH]c(CSC2CCN(C3COC3)CC2)nc2cc(NC3CCCC3)cc(F)c12` [Example 255, 7-(Cyclopentylamino)-5-fluoro-2-(((1-(oxetan-3-yl)piperidin-4-yl)thio)methyl)quinazolin-4(3H)-one] had a pIC50 greater than 6.00.

`O=c1[nH]c(CSC2CCOCC2)nc2cc(OC[C@H]3CCC[C@H]3O)cc(F)c12` (relative stereo) [Example 359] had a pIC50 greater than 6.00.

For the compound `Cc1cncc(Nc2ccc3c(=O)[nH]c(CSC4CCOCC4)nc3c2)c1` [Example 92, 7-((5-Methylpyridin-3-yl)amino)-2-(((tetrahydro-2H-pyran-4-yl)thio)methyl)quinazolin-4(3H)-one], the pIC50 is 5.00 to 6.00.

As for `O=c1[nH]c(CS[C@@H]2CCNC[C@H]2F)nc2cc(OCC3CC3)cc(F)c12` (relative stereo) [Example 297, 7-(Cyclopropylmethoxy)-5-fluoro-2-(((trans-3-fluoropiperidin-4-yl)thio)methyl)quinazolin-4(3H)-one hydrochloride], the pIC50 was 5.00 to 6.00.

The compound `O=c1[nH]c(CS[C@H]2CC[C@H](O)CC2)nc2cc(OC[C@@H]3CCOC3)cc(F)c12` [Example 325a, 5-Fluoro-2-((((trans)-4-hydroxycyclohexyl)thio)methyl)-7-(((R)-tetrahydrofuran-3-yl)methoxy)quinazolin-4(3H)-one] showed a pIC50 greater than 6.00.

As to `CCO[C@H]1C[C@@H](Nc2cc3nc(CSC4CCOCC4)[nH]c(=O)c3c(F)c2F)C1` [Example 331, 7-(((cis)-3-Ethoxycyclobutyl)amino)-5,6-difluoro-2-(((tetrahydro-2H-pyran-4-yl)thio)methyl)quinazolin-4(3H)-one], the pIC50 is greater than 6.00.

`C[C@]1(O)C[C@@H](COc2cc(F)c3c(=O)[nH]c(CSC4CCOCC4)nc3c2)C1` [Example 386] had a pIC50 greater than 6.00.

Consider `O=c1[nH]c(CS[C@@H]2CCNCC2F)nc2cc(OCC3CC3)cc(F)c12` (stereo in doubt) [Example 295, 7-(Cyclopropylmethoxy)-5-fluoro-2-(((cis-3-fluoropiperidin-4-yl)thio)methyl)quinazolin-4(3H)-one hydrochloride], for which the pIC50 was greater than 6.00.

Compound `O=c1[nH]c(CS[C@H]2CC[C@H](O)CC2)nc2cc(OCC3CCOCC3)cc(F)c12` [Example 342] gave a pIC50 greater than 6.00.

The compound `Cc1cccc2c(=O)[nH]c(CSC3COC3)nc12` [Example 39, 8-Methyl-2-((oxetan-3-ylthio)methyl)quinazolin-4(3H)-one] gave a pIC50 of less than 5.00.

`Cc1cccc2c(=O)[nH]c(CS[C@H]3CC[C@@H](CN)CC3)nc12` [Example 65, 2-(((cis-4-(Aminomethyl)cyclohexyl)thio)methyl)-8-methylquinazolin-4(3H)-one Trifluoroacetate]: the pIC50 is 5.00 to 6.00.

`Cc1cccc2c(=O)[nH]c(CSC3CCCNC3)nc12` (centres unmarked) [Example 48, 8-Methyl-2-((piperidin-3-ylthio)methyl)quinazolin-4(3H)-one Hydrochloride] showed a pIC50 of 5.00 to 6.00.

As for `NC(=O)[C@H]1CC[C@H](SCc2nc3cc(NC4CCCC4)cc(F)c3c(=O)[nH]2)CC1` [Example 218, trans-4-(((7-(Cyclopentylamino)-5-fluoro-4-oxo-3,4-dihydroquinazolin-2-yl)methyl)thio)cyclohexane-1-carboxamide], the pIC50 was greater than 6.00.

As to `O=c1[nH]c(CS[C@H]2CC[C@H](O)CC2)nc2cc(NC3CCCC3)c(F)cc12` [Example 293, 7-(Cyclopentylamino)-6-fluoro-2-(((trans-4-hydroxycyclohexyl)thio)methyl)quinazolin-4(3H)-one], the pIC50 was greater than 6.00.

`O=c1[nH]c(CSC2CCOCC2)nc2cc(NCc3ccccc3)ccc12` [Example 119, 7-(Benzylamino)-2-(((tetrahydro-2H-pyran-4-yl)thio)methyl)quinazolin-4(3H)-one] showed a pIC50 greater than 6.00.

`CO[C@H]1CC[C@H](SCc2nc3c(C)cccc3c(=O)[nH]2)CC1` [Example 26, 2-((((trans)-4-Methoxycyclohexyl)thio)methyl)-8-methylquinazolin-4(3H)-one] showed a pIC50 of 5.00 to 6.00.

`O=c1[nH]c(CS[C@H]2CC[C@@H](C(=O)O)CC2)nc2cc(NC3CCCC3)cc(F)c12` [Example 216, cis-4-(((7-(Cyclopentylamino)-5-fluoro-4-oxo-3,4-dihydroquinazolin-2-yl)methyl)thio)cyclohexane-1-carboxylic acid] gave a pIC50 of 5.00 to 6.00.

Take `Cc1ccc(C(F)(F)F)c2c(=O)[nH]c(CSC3CCC(O)CC3)nc12` (centres unmarked) [Example 59, 2-(((4-Hydroxycyclohexyl)thio)methyl)-8-methyl-5-(trifluoromethyl)quinazolin-4(3H)-one]: the pIC50 is greater than 6.00.

`Cc1cccc2c(=O)[nH]c(CS(=O)(=O)C3CCOCC3)nc12` [Example 19, 8-Methyl-2-(((tetrahydro-2H-pyran-4-yl)sulfonyl)methyl)quinazolin-4(3H)-one] showed a pIC50 of less than 5.00.

Compound `CC(C)C(=O)N1CCC(COc2cc(F)c3c(=O)[nH]c(CSC4CCOCC4)nc3c2)CC1` [Example 397] showed a pIC50 greater than 6.00.

Compound `N#C[C@H]1CC[C@H](Nc2cc3nc(CSC4CCOCC4)[nH]c(=O)c3c(F)c2F)CC1` [Example 360] gave a pIC50 greater than 6.00.

`CN1CC[C@@H](COc2cc(F)c3c(=O)[nH]c(CS[C@H]4CC[C@H](O)CC4)nc3c2)[C@H](F)C1` [Example 335a, 5-fluoro-7-(((3S,4S)-3-fluoro-1-methylpiperidin-4-yl)methoxy)-2-((((trans)-4-hydroxycyclohexyl)thio)methyl)quinazolin-4(3H)-one] had a pIC50 greater than 6.00.

For `O=c1[nH]c(CS[C@H]2CC[C@@H](O)CC2)nc2cc(NC3CCCC3)ccc12` [Example 103, 7-(Cyclopentylamino)-2-(((cis-4-hydroxycyclohexyl)thio)methyl) quinazolin-4(3H)-one], the pIC50 is greater than 6.00.

In the case of `O=c1[nH]c(CSC2CCOCC2)nc2cc(NCC3CCOCC3)c(F)c(F)c12` [Example 338], the pIC50 is greater than 6.00.

`C[C@]1(O)CC[C@H](SCc2nc3cc(OCC4CCOC4)cc(F)c3c(=O)[nH]2)CC1` (some centres unmarked) [Example 373]: the pIC50 was greater than 6.00.

Take `Cc1cccc2c(=O)[nH]c(CSC3CCC(CN)C3)nc12` (centres unmarked) [Example 191, 2-(((3-(aminomethyl)cyclopentyl)thio)methyl)-8-methylquinazolin-4(3H)-one]: the pIC50 is 5.00 to 6.00.

`O=c1[nH]c(CSC2CCOCC2)nc2ncccc12` [Example 43, 2-(((Tetrahydro-2H-pyran-4-yl)thio)methyl)pyrido[2,3-d]pyrimidin-4(3H)-one] showed a pIC50 of less than 5.00.
